This is an account of results in patent publication US20230117324A1, “OXAZINE MONOACYLGLYCEROL LIPASE (MAGL) INHIBITORS” (Hoffmann-La Roche Inc., priority 2018, published 2023).

Molecules are shown by their SMILES. pIC50: −log10 of the molar value.

The target of this assay is T1, MAGL (Homo sapiens, UniProt Q99685).
T1 sequence (Q99685 1-303): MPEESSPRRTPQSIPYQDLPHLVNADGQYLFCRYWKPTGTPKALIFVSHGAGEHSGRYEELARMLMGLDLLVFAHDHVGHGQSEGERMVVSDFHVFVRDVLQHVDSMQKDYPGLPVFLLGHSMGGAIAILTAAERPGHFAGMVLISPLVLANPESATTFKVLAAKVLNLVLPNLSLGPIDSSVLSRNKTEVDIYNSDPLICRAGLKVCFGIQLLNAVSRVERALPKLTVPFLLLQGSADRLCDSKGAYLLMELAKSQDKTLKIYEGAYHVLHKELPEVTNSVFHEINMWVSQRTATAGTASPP
Briefly: MAGL inhibition, 2-AG assay (hydrolysis of 2-arachidonoylglycerol, arachidonic acid by mass spectrometry). The note with it: 2-AG assay (footnote [b]). In kind it is biochemical. As to the method: Alternatively, compounds were profiled for MAGL inhibitory activity by determining the enzymatic activity by following the hydrolysis of the natural substrate 2-arachidonoylglycerol (2-AG) resulting in arachidonic acid, which can be followed by mass spectrometry. This assay is hereinafter abbreviated “2-AG assay”.
The 2-AG assay was carried out in 384 well assay plates (PP, Greiner Cat #784201) in a total volume of 20 μL. Compound dilutions were made in 100% DMSO (VWR Chemicals 23500.297) in a polypropylene plate in 3-fold dilution steps to give a final concentration range in the assay from 12.5 μM to […]. 0.25 μL compound dilutions (100% DMSO) were added to 9 μL MAGL in assay buffer (50 mM TRIS (GIBCO, 15567-027), 1 mM EDTA (Fluka, 03690-100 mL), 0.01% (v/v) Tween. After shaking, the plate was incubated for 15 min at RT. To start the reaction, 10 μL 2-arachidonoylglycerol in assay buffer was added. The final concentrations in the assay was […] and 8 μM 2-arachidonoylglyerol. After shaking and 30 min incubation at RT, the reaction was quenched by the addition of 40 μL of ACN containing 4 μM of d8-arachidonic acid. The amount of arachidonic acid was traced by an online SPE system (Agilent Rapidfire) coupled to a triple quadrupole mass spectrometer (Agilent 6460). A C18 SPE cartridge (G9205A) was used in an ACN/water liquid setup. The mass spectrometer was operated in negative electrospray mode following the mass transitions 303.1→259.1 for arachidonic acid and 311.1→267.0 for d8-arachidonic acid. The activity of the compounds was calculated based on the ratio of intensities [arachidonic acid/d8-arachidonic acid].
Compound `CC(Oc1ccc(C(F)(F)F)cc1Cl)C1CN(C(=O)N2CC[C@@H]3OCC(=O)N[C@@H]3C2)C1` (single isomer, unassigned) [Example 75, (4aR,8aS)-6-(3-(R or S)-(1-(2-chloro-4-(trifluoromethyl)phenoxy)ethyl)azetidine-1-carbonyl)hexahydro-2H-pyrido[4,3-b][1,4]oxazin-3(4H)-one] gave a pIC50 of 7.55.
To `CC(Oc1ccc(C(F)(F)F)cc1Cl)C1CN(C(=O)N2CC[C@@H]3OCC(=O)N[C@@H]3C2)C1` (single isomer, unassigned) [Example 76, (4aR,8aS)-6-(3-(S or R)-(1-(2-Chloro-4-(trifluoromethyl)phenoxy)ethyl)azetidine-1-carbonyl)hexahydro-2H-pyrido[4,3-b][1,4]oxazin-3(4H)-one] belongs 9.00; to `O=C1CO[C@H]2CCN(C(=O)N3CCC(C(c4ccccc4)c4ccc(OCCF)cc4)CC3)C[C@H]2N1` (single isomer, unassigned) [Example 79, (4aR,8aS)-6-[4-[(S or R)-[4-(2-Fluoroethoxy)phenyl]-phenylmethyl]piperidine-1-carbonyl]-4,4a,5,7,8,8a-hexahydropyrido[4,3-b][1,4]oxazin-3-one], 9.70; to `Cc1ccc(C(c2ccccc2)C2CCN(C(=O)N3CC[C@@H]4OCC(=O)N[C@@H]4C3)CC2)cc1` (single isomer, unassigned) [Example 84, (4aR,8aS)-6-[4-[(S or R)-Phenyl(p-tolyl)methyl]piperidine-1-carbonyl]-4,4a,5,7,8,8a-hexahydropyrido[4,3-b][1,4]oxazin-3-one], 10.00.
The value for `Cc1ccc(C(c2ccccc2)C2CCN(C(=O)N3CC[C@@H]4OCC(=O)N[C@@H]4C3)CC2)cc1` (single isomer, unassigned) [Example 85, (4aR,8aS)-6-(4-((R or S)-Phenyl(p-tolyl)methyl)piperidine-1-carbonyl)hexahydro-2H-pyrido[4,3-b][1,4]oxazin-3(4H)-one] was 10.00; that for `COc1ccc(C(c2ccccc2)C2CCN(C(=O)N3CC[C@@H]4OCC(=O)N[C@@H]4C3)CC2)cc1OC` (single isomer, unassigned) [Example 87, (4aR,8aS)-6-(4-((S or R)-(3,4-Dimethoxyphenyl)(phenyl)methyl)piperidine-1-carbonyl)hexahydro-2H-pyrido[4,3-b][1,4]oxazin-3(4H)-one] was 9.40; that for `COc1ccc(C(c2ccc(F)cc2)C2CCN(C(=O)N3CC[C@@H]4OCC(=O)N[C@@H]4C3)CC2)cc1OC` (single isomer, unassigned) [Example 88, (4aR,8aS)-6-(4-((R or S)-(3,4-Dimethoxyphenyl)(4-fluorophenyl)methyl)piperidine-1-carbonyl)hexahydro-2H-pyrido[4,3-b][1,4]oxazin-3(4H)-one] was 8.66.
`COc1ccc(C(c2ccc(F)cc2)C2CCN(C(=O)N3CC[C@@H]4OCC(=O)N[C@@H]4C3)CC2)cc1` (single isomer, unassigned) [Example 89, (4aR,8aS)-6-(4-((R or S)-(4-Fluorophenyl)(4-methoxyphenyl)methyl)piperidine-1-carbonyl)hexahydro-2H-pyrido[4,3-b][1,4]oxazin-3(4H)-one] showed a pIC50 of 9.22.
To `O=C1CO[C@H]2CCN(C(=O)N3CCC(C(c4ccc(F)cc4)c4nc(C5CC5)no4)CC3)C[C@H]2N1` (single isomer, unassigned) [Example 94, (4aR,8aS)-6-(4-((R or S)-(3-Cyclopropyl-1,2,4-oxadiazol-5-yl)(4-fluorophenyl)methyl)piperidine-1-carbonyl)hexahydro-2H-pyrido[4,3-b][1,4]oxazin-3(4H)-one] belongs 8.70.
As for `O=C1CO[C@H]2CCN(C(=O)N3CCC(C(c4ccc(F)cc4)c4nc(C5CC5)no4)CC3)C[C@H]2N1` (single isomer, unassigned) [Example 95, (4aR,8aS)-6-(4-((S or R)-(3-Cyclopropyl-1,2,4-oxadiazol-5-yl)(4-fluorophenyl)methyl)piperidine-1-carbonyl)hexahydro-2H-pyrido[4,3-b][1,4]oxazin-3(4H)-one], the pIC50 was 7.80.
In turn, `CC(Oc1ccc(C(F)(F)F)cc1F)C1CN(C(=O)N2CC[C@@H]3OCC(=O)N[C@@H]3C2)C1` (single isomer, unassigned) [Example 96, (4aR,8aS)-6-(3-((R or S)-1-(2-Fluoro-4-(trifluoromethyl)phenoxy)ethyl)azetidine-1-carbonyl)hexahydro-2H-pyrido[4,3-b][1,4]oxazin-3(4H)-one] had a pIC50 of 7.36. This pIC50 lies 0.44 log units lower than the previous one.
To `CC(Oc1ccc(C(F)(F)F)cc1F)C1CN(C(=O)N2CC[C@@H]3OCC(=O)N[C@@H]3C2)C1` (single isomer, unassigned) [Example 97, (4aR,8aS)-6-(3-((S or R)-1-(2-Fluoro-4-(trifluoromethyl)phenoxy)ethyl)azetidine-1-carbonyl)hexahydro-2H-pyrido[4,3-b][1,4]oxazin-3(4H)-one] belongs 7.80.
With `CC(Oc1ccc(C(F)(F)F)cc1)C1CN(C(=O)N2CC[C@@H]3OCC(=O)N[C@@H]3C2)C1` (single isomer, unassigned) [Example 98, (4aR,8aS)-6-(3-((R or S)-1-(4-(Trifluoromethyl)phenoxy)ethyl)azetidine-1-carbonyl)hexahydro-2H-pyrido[4,3-b][1,4]oxazin-3(4H)-one], the negative-log IC50 (pIC50) was 7.21. This pIC50 is 0.59 log units lower than that of the compound before.
The value for `CC(Oc1ccc(C(F)(F)F)cc1)C1CN(C(=O)N2CC[C@@H]3OCC(=O)N[C@@H]3C2)C1` (single isomer, unassigned) [Example 99, (4aR,8aS)-6-(3-((S or R)-1-(4-(Trifluoromethyl)phenoxy)ethyl)azetidine-1-carbonyl)hexahydro-2H-pyrido[4,3-b][1,4]oxazin-3(4H)-one] was 7.57; that for `O=C1CO[C@H]2CCN(C(=O)N3CCC(C(c4ccc(F)cc4)c4ccc(OCCF)cc4)CC3)C[C@H]2N1` (single isomer, unassigned) [Example 100, (4aR,8aS)-6-(4-((R or S)-(4-(2-Fluoroethoxy)phenyl)(4-fluorophenyl)methyl)piperidine-1-carbonyl)hexahydro-2H-pyrido[4,3-b][1,4]oxazin-3(4H)-one] was 8.40; that for `CC(c1ccc(C(F)(F)F)cc1)C1CN(C(=O)N2CC[C@@H]3OCC(=O)N[C@@H]3C2)C1` (single isomer, unassigned) [Example 103, (4aR,8aS)-6-(3-((S or R)-1-(4-(Trifluoromethyl)phenyl)ethyl)azetidine-1-carbonyl)hexahydro-2H-pyrido[4,3-b][1,4]oxazin-3(4H)-one] was 7.00.
As for `CC(c1ccc(C(F)(F)F)cc1)C1CN(C(=O)N2CC[C@@H]3OCC(=O)N[C@@H]3C2)C1` (single isomer, unassigned) [Example 104, (4aR,8aS)-6-(3-((R or S)-1-(4-(Trifluoromethyl)phenyl)ethyl)azetidine-1-carbonyl)hexahydro-2H-pyrido[4,3-b][1,4]oxazin-3(4H)-one], the pIC50 was 6.95.
To `O=C1CO[C@H]2CCN(C(=O)N3CC(C(OCC(F)(F)F)c4ccc(F)cc4)C3)C[C@H]2N1` (single isomer, unassigned) [Example 105, (4aR,8aS)-6-[3-(S or R)-[(4-Fluorophenyl)-(2,2,2-trifluoroethoxy)methyl]azetidine-1-carbonyl]-4,4a,5,7,8,8a-hexahydropyrido[4,3-b][1,4]oxazin-3-one] belongs 6.36.
Consider `O=C1CO[C@H]2CCN(C(=O)N3CC(C(OCC(F)(F)F)c4ccc(F)cc4)C3)C[C@H]2N1` (single isomer, unassigned) [Example 106, (4aR,8aS)-6-[3-(R or S)-[(4-Fluorophenyl)-(2,2,2-trifluoroethoxy)methyl]azetidine-1-carbonyl]-4,4a,5,7,8,8a-hexahydropyrido[4,3-b][1,4]oxazin-3-one], for which the pIC50 is 6.50.
`O=C1CO[C@H]2CCN(C(=O)N3CCC(C(c4ccccc4)c4cccc(OCCF)c4)CC3)C[C@H]2N1` (single isomer, unassigned) [Example 108, (4aR,8aS)-6-(4-((R or S)-(3-(2-Fluoroethoxy)phenyl)(phenyl)methyl)piperidine-1-carbonyl)hexahydro-2H-pyrido[4,3-b][1,4]oxazin-3(4H)-one] showed a pIC50 of 9.40.

For orientation: pIC50 means the negative decadic logarithm of the IC50, by convention in mol/L.
